Laboratory results published in patent US9926581B2, “Fagopyritol synthase genes and uses thereof” (Cornell Research Foundation, Inc., priority 2002, dated 2018).
Entries after “also recorded” stand apart in the source; their conditions may differ.

What was measured:
Conditions in all cases: for activity as galactosyl acceptor: UDP-Gal as galactosyl donor, 20 mM substrates, 5 mM MnCl2, 30° C.
GmGolS = assay: Galactinol synthase / fagopyritol synthase enzyme assay with recombinant GmGolS; format: biochemical, Glycine max
Method: (§1) Both the crude soluble protein extracts from E. coli and the purified GolS recombinant proteins were used in enzyme assays. […] In galactinol synthase assays, UDP-Gal was substituted with 20 mM galactinol as the galactosyl donor. Assays were run at 30° C. for 30 to 300 minutes. Reactions were stopped by addition of 50 μL of 100% ethanol.
Both crude soluble protein extracts from E. coli containing the recombinant GmGolS protein and purified recombinant GmGolS protein were used in enzyme assays. […] Assays were run at 30° C. for 30 to 300 minutes. Reactions were stopped by addition of 50 μL of 100% ethanol.
(§2) The reactions were stopped after 3 hours with the addition of 50 μL of 100% EtOH.
(§3) To determine the concentration of Mn^2+ in which the enzymes had the greatest activity, multiple assays were completed varying the amount of Mn^2+. […] After 3 hours, the reactions were stopped with the addition of 50 μL of 100% EtOH.
(§4) The reactions were completed using 1-2 μg of enzyme in a 50 μL solution containing 20 mM galactosyl acceptor, 20 mM UDP-galactose, 50 mM HEPES, pH 7.0, 2 mM DTT, 5 mM Mn^2+ at 30° C. After 3 hours, the reactions were stopped with the addition of 50 of 100% EtOH.
(§5) All samples from the assays were analyzed by gas chromatography. All were prepared for analysis in the same way. […] The solution was then filtered using NanoSep tubes and 100 μL was transferred to a silation vial. The samples were then dried under nitrogen and desiccated over P2O5 overnight. The dried samples were then derivitized with 100 μL of TMSI:pyridine (1:1, v/v) and then analyzed by gas chromatography.

FeGolS-1 = assay: Fagopyritol synthase / galactinol synthase enzyme assay with recombinant FeGolS-1 (products by gas chromatography); format: biochemical, Fagopyrum esculentum
Method: Both the crude soluble protein extracts from E. coli and the purified GolS recombinant proteins were used in enzyme assays. […] In galactinol synthase assays, UDP-Gal was substituted with 20 mM galactinol as the galactosyl donor. Assays were run at 30° C. for 30 to 300 minutes. Reactions were stopped by addition of 50 μL of 100% ethanol. […] The reactions were stopped after 3 hours with the addition of 50 μL of 100% EtOH. […] To determine the concentration of Mn^2+ in which the enzymes had the greatest activity, multiple assays were completed varying the amount of Mn^2+. […] After 3 hours, the reactions were stopped with the addition of 50 μL of 100% EtOH. […] After 3 hours, the reactions were stopped with the addition of 50 of 100% EtOH. All samples from the assays were analyzed by gas chromatography. All were prepared for analysis in the same way. […] The solution was then filtered using NanoSep tubes and 100 μL was transferred to a silation vial. The samples were then dried under nitrogen and desiccated over P2O5 overnight. The dried samples were then derivitized with 100 μL of TMSI:pyridine (1:1, v/v) and then analyzed by gas chromatography.

FeGolS-2 = FeGolS-2 (Fagopyrum esculentum, UniProt Q7XZ07); assay: Fagopyritol synthase / galactinol synthase enzyme assay with recombinant FeGolS-2 (products by gas chromatography); format: biochemical
FeGolS-2, sequence (Q7XZ07 entry or part of it): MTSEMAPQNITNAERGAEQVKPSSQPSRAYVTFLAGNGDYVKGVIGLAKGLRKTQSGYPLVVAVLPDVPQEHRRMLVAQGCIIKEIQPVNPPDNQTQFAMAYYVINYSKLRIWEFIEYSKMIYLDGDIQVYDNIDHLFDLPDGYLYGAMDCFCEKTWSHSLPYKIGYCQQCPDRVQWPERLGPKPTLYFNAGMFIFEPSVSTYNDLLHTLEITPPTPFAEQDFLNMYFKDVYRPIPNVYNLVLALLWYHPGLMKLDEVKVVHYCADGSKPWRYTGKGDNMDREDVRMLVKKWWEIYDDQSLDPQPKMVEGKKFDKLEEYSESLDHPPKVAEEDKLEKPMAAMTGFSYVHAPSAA
Method: as §1, §2, §3, §4, §5

[1] = 20 mM galactosyl donor instead of UDP-Gal

## CO[C@H]1[C@H](O)[C@@H](O)[C@@H](O)[C@H](O)[C@@H]1O [D-Pinitol, 1D-3-O-methyl-chiro-inositol]
GmGolS
  activity as galactosyl acceptor: not active

## COC1[C@H](O)[C@H](O)C(O)[C@H](O)[C@H]1O (stereo partly drawn) [D-bornesitol, 1D-1-O-methyl-myo-inositol]
FeGolS-1
  activity as galactosyl acceptor: can be used as galactosyl acceptors
FeGolS-2
  activity as galactosyl acceptor: can be used as galactosyl acceptors
GmGolS
  activity as galactosyl acceptor: reduced activity
GmGolS; listed as bornesitol
  activity as galactosyl acceptor: can be used as galactosyl acceptors

## OC1C(O)C(O)C(O)C(O)C1O [D-chiro-Inositol, D-chiro-inositol]
FeGolS-1
  activity as galactosyl acceptor: can be used as galactosyl acceptors
FeGolS-1; listed as D-chiro-inositol
  activity as galactosyl acceptor: catalyzed the biosynthesis of fagopyritol B1
GmGolS; listed as D-chiro-inositol
  activity as galactosyl acceptor: catalyzed the biosynthesis of fagopyritol B1, but not fagopyritol A1; also recorded: catalyzed the biosynthesis of fagopyritol B1; also recorded: can be used as galactosyl acceptors

## COC1[C@@H](O)[C@@H](O)C(O)[C@H](O)[C@H]1O (stereo partly drawn) [D-ononitol, 1D-4-O-methyl-myo-inositol]
GmGolS
  activity as galactosyl acceptor: not active

## OC[C@H]1O[C@H](OC2[C@@H](O)[C@H](O)C(O)[C@H](O)[C@@H]2O)[C@H](O)[C@@H](O)[C@H]1O (some centres unmarked) [Galactinol, galactinol]
FeGolS-1; [1]
  activity as galactosyl donor: Neither FeGolS-1 nor FeGolS-2 was active
FeGolS-2; [1]
  activity as galactosyl donor: Neither FeGolS-1 nor FeGolS-2 was active
GmGolS; galactosyl donor instead of UDP-Gal
  activity as galactosyl donor: not active

## OC1C(O)C(O)C(O)C(O)C1O [L-chiro-inositol]
FeGolS-1
  activity as galactosyl acceptor: can be used as galactosyl acceptors
GmGolS
  activity as galactosyl acceptor: active; also recorded: can be used as galactosyl acceptors

## CO[C@H]1[C@H](O)[C@@H](O)[C@H](O)[C@H](O)[C@H]1O [L-quebrachitol, 1L-2-O-methyl-chiro-inositol]
GmGolS
  activity as galactosyl acceptor: not active

## OC1C(O)C(O)C(O)C(O)C1O (stereo not drawn) [epi-inositol]
GmGolS
  activity as galactosyl acceptor: no activity

## O[C@H]1[C@H](O)[C@@H](O)[C@H](O)[C@@H](O)[C@H]1O [myo-Inositol, myo-inositol]
FeGolS-1
  activity as galactosyl acceptor: catalyzed the biosynthesis of galactinol; also recorded: can be used as galactosyl acceptors
FeGolS-2
  activity as galactosyl acceptor: catalyzed the biosynthesis of galactinol; also recorded: can be used as galactosyl acceptors
GmGolS
  activity as galactosyl acceptor: catalyzed the biosynthesis of galactinol; also recorded: can be used as galactosyl acceptors

## O[C@H]1[C@H](O)[C@@H](O)[C@H](O)[C@@H](O)[C@@H]1O [scyllo-inositol]
FeGolS-1
  activity as galactosyl acceptor: can be used as galactosyl acceptors
FeGolS-2
  activity as galactosyl acceptor: can be used as galactosyl acceptors
GmGolS
  activity as galactosyl acceptor: reduced activity; also recorded: can be used as galactosyl acceptors

## COC1[C@@H](O)[C@H](O)C(O)[C@H](O)[C@H]1O (some centres unmarked) [sequoyitol, 5-O-methyl-myo-inositol]
GmGolS
  activity as galactosyl acceptor: not active
